Experimental data reported in patent US12569577B2, “PSMA-targeting imaging agents” (The Cleveland Clinic Foundation, priority 2019, dated 2026).
Like-named read-outs stand apart in the source and are kept apart here. Values belong to the molecule of their own block, whether it stands above or below them. *1 amine or outer side, *2 acyl side, *3 side chain or, on linkers, in order; H or OH if unused. Where a SMILES comes first, the peptide text is derived from it. The star is where a group is joined. DOTA = O=C(O)CN1CCN(CC(=O)O)CCN(CC(=O)*)CCN(CC(=O)O)CC1; γGlu = O=C(O)[CH](CCC(=O)[*:2])N[*:1]; CO = O=C([*:1])[*:2]; Ahx = NCCCCCC(=O)O

Key:
[1] = biological target: T1, PSMA (Homo sapiens, UniProt Q04609); test: Competitive binding assay: NAAG hydrolysis by PC3-PIP membranes, Amplex Red glutamic acid readout; format: biochemical; details: for EC50: PC3-PIP membranes
T1 construct: expressed in transfected cells; host or cells: PC3-PIP cells (washed membrane preparation after freeze/thaw)
Description: PC3-PIP PSMA-expressing cells were grown to confluency, harvested in 50 mM Tris-HCl (pH 7.5) and subjected to four freeze/thaw cycles. Cell membranes were washed three times by centrifugation at 12,000g or higher. The cell membranes were diluted to 50 mg/mL in 50 mM Tris-HCl (pH 7.5) (based on wet weight of the solid after centrifugation). Binding assays were conducted in 96 well plates. Phase 1 of the assay used wells containing 100 microliters 50 mM Tris-HCl (pH 7.5) with 4 microns NAAG and 10 microns of PC3-PIP membrane, to which differing concentrations of Compound 1 was added. The 96 well plate was incubated at 37° C. for 2 h. The glutamic acid concentration was measured with the Amplex Red glutamic acid assay kit (Invitrogen-Molecular Probes) using a fluorescent plate reader (530 nm excitation, 590 nm emission). The resulting fluorescence signals were normalized, and normalized fluorescence plotted against the concentration of ligand (log (nm)) (FIG. 1). EC50 was determined according to Eq. 1 (below). [formula]

[2] = 68Ga-labelled; Rousseau et al.; cited from earlier work
[3] = tested on: prostate cancer lesions; details: cited from earlier work

T1 sequence (Q04609 whole entry): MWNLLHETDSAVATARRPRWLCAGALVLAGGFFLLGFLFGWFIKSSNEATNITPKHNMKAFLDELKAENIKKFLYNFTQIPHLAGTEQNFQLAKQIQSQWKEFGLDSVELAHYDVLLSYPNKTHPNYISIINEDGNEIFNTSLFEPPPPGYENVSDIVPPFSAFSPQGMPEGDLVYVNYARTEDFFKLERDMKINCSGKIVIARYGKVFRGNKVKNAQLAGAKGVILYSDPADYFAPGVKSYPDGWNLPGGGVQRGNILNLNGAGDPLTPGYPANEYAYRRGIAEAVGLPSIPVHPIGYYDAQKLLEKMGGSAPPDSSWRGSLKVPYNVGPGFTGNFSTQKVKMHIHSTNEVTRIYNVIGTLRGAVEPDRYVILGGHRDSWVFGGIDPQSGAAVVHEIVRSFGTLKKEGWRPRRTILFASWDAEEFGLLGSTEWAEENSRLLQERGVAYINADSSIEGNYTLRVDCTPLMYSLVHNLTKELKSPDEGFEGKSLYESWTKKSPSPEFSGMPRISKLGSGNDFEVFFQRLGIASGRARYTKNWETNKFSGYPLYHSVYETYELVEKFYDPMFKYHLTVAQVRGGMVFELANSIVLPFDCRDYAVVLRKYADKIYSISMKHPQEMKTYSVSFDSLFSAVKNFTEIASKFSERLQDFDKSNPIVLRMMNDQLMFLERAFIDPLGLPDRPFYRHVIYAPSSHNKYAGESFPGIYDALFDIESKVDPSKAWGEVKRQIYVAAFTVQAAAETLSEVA

EC50 ([1]; NAAG substrate, 37° C. 2 h, FIG. 1): 0.287 ± 0.064 nM | Ki ([1]; calculated from the competitive binding assay, read-out: estimated Ki to PSMA): < 0.3 nM
SMILES: NC(=O)C(CCCCNC(=O)CN1CCN(CC(=O)O)CCN(CC(=O)O)CCN(CC(=O)O)CC1)NC(=O)C(Cc1ccc(O)cc1)NC(=O)C(CCC(=O)O)NC(=O)C(CCC(=O)O)NC(=O)C(CCC(=O)O)NC(=O)CCCCCNC(=O)CCC(NC(=O)NC(CCC(=O)O)C(=O)O)C(=O)O (stereo not shown) [Compound 1] ({Glu-CO-γGlu-Ahx}-EEEYK(DOTA)-NH2; configuration not given here)

EC50 ([1]; FIG. 2 and FIG. 3): ~0.1 nM
SMILES: O=C(O)CCC(NC(=O)NC(CCCCNC(=O)CCC(NC(=O)CCC(NC(=O)c1ccc(F)nc1)C(=O)O)C(=O)O)C(=O)O)C(=O)O (stereo not shown) [Compound 11]

SMILES: O=C(O)CCc1ccc(O)c(CN(CCN(CC(=O)O)Cc2cc(CCC(=O)NCCCCCC(=O)NCCCC[C@H](NC(=O)N[C@@H](CCC(=O)O)C(=O)O)C(=O)O)ccc2O)CC(=O)O)c1 [PSMA 11, Glu-NH—CO—NH-Lys (Ahx)-[^68Ga(HBEDCC], metal not drawn]
Biodistribution Blood [2]: 0.31% ± 0.08% | Biodistribution Kidney [2]: 182% ± 33% | Biodistribution Liver [2]: 0.44% ± 0.13% | Biodistribution Muscle [2]: 0.54% ± 0.14% | Biodistribution Salivary Gland [2]: 10.00% ± 2.52% | Biodistribution Spleen [2]: 22.2% ± 7.91% | Biodistribution Tumor [2]: 8.67% ± 1.97% | (per patient) lesion detection rate ([3]; PSA <2.2 ng/ml): 60% | (per patient) lesion detection rate ([3]; PSA >2.2 ng/ml): 100%

EC50 ([1]; FIG. 2 and FIG. 3): 0.39 ± 0.02 nM
SMILES: O=C(O)CCC(NC(=O)NC(CCCCNC(=O)CCC(NC(=O)CCC(NC(=O)C(Cc1ccc(O)cc1)NC(=O)CN1CCN(CC(=O)O)CCN(CC(=O)O)CCN(CC(=O)O)CC1)C(=O)O)C(=O)O)C(=O)O)C(=O)O (stereo not shown) [Compound 14, E′K-E!E!Y-DOTA]
